“Also recorded” adds a separate entry of the source.

The test system of series [1] is A549 p53 KO cells. Kind of series: Resazurin cell survival assay in p53 KO clone. The class given is cell-based. The settings on record: p53 KO clone of A549; DMPS (150 μM); doxorubicin; FIG. 3D. The method, then: A549, MCF7 and Beas-2B cells were obtained from ATCC (https://www.atcc.org). Cells were maintained in DMEM high Glucose (Invitrogen) and 10% FCS (Gibco) at 37° C. and 5% CO2. A549 p53 KO cells were generated using a CRISPR p53 KO construct (pLV-U6g-EPCG with target sequence TCCATTGCTTGG GACGGCAAGG, Sigma). Cell lines were selected for GFP expression using FACS sorting followed by clonal selection in neomycin (600 ng/ml, Sigma).
Resazurin cell survival assays were used to determine cell survival upon chemotherapeutic and chelator challenge. 2×10^3 cells were seeded in 100 μl in 96 well plates. 24 hrs later medium was replaced with 90 μl of metal mixtures or control medium for another 24 hrs. Next a combination of chelators and chemotherapy as indicated in the figures was prepared and added as an additional 10 μl to the cells. Cells were then incubated for 72 hr (Beas-2B) or 96 hr (A549 and MCF7). A stock solution of resazurin (Sigma) was made as 880 μM in PBS adjusted to pH 7.8/filtered 0.2 μm and kept for 6 months at 4° C. Medium was replaced with 75 μl of resazurin solution (final concentration 44 μM). Cells were incubated at 37° C. for 3-4 hrs and fluorescence emission was measured at 583 nm with excitation at 555 nm using a spectrophotometer (Beckman). […]

The test system of series [2] is p53. In words: p53 folding status in cells (immunoprecipitation with folding antibodies / western blot). The class given is cell-based. The settings on record: Beas-2B cells incubated with metals in presence or absence of chelator; FIG. 20, 21. The method, then: (§1) Cells were seeded in 6 well plates at 30% cell density. 24 hrs later, medium was replaced with the metal mixtures as indicated. Cells were incubated for 24 hrs and lysed with 100 μl NP-40 lysis buffer (100 mM NaCl 100 mM Tris pH8, 1% NP-40) for 15 min on ice. Cell pellets were discarded in centrifugation (10 min max) and 10% of input was taken for western blot and mixed with 4×SB. The remaining lysate was subjected to immunoprecipitation with p53 Ab240 Ab (1 ul per condition) using 30 μl NP-40 buffer washed goat-anti-mouse magnetic Dynabeads (Thermo Fisher). Lysates and beads were tumbled at 4° C. for 2 hrs and washed 3× with NO-40 buffer. Beads were taken up in 2×SB and together with inputs denatured at 95° C. in a heat block. 8% SDS page gels were used to run all of the samples on western blot. Gels were transferred on nitrocellulose membrane, blocked with milk (TBS-Tween) for 1 hr tumbling and incubated in p53 DO-1 (Santa Cruz Ab, 1:2000) ON at 4° C. The membrane was washed 3× with TBS-tween and secondary Ab (anti-mouse 700, Li-Cor) was used 1:10.000 to incubate the blot for 1 hr at room temperature. The blot was washed with TBS-tween 3× and the signal was measured in a Li-Cor Odyssey. Quantification was measured in the software of Li-Cor and plotted corrected for input levels of each sample.

Series [3] relates to A549 lung cancer cells. In words: Resazurin cell survival assay, metal-induced chemoresistance and chelators. The class given is cell-based. Also noted: dose or concentration left out as unconfirmed. The settings on record: FIG. 3C. The procedure:
(§2) Resazurin cell survival assays were used to determine cell survival upon chemotherapeutic and chelator challenge. 2×10^3 cells were seeded in 100 μl in 96 well plates. 24 hrs later medium was replaced with 90 μl of metal mixtures or control medium for another 24 hrs. Next a combination of chelators and chemotherapy as indicated in the figures was prepared and added as an additional 10 μl to the cells. Cells were then incubated for 72 hr (Beas-2B) or 96 hr (A549 and MCF7). A stock solution of resazurin (Sigma) was made as 880 μM in PBS adjusted to pH 7.8/filtered 0.2 μm and kept for 6 months at 4° C. Medium was replaced with 75 μl of resazurin solution (final concentration 44 μM). Cells were incubated at 37° C. for 3-4 hrs and fluorescence emission was measured at 583 nm with excitation at 555 nm using a spectrophotometer (Beckman). To test the effects of metals on doxorubicin directly, doxorubicin was incubated with metals in solution 24 hrs as a 10× solution, prior to adding to cells, whereas control cells were incubated in metals as described before.

In series [4] the test system is MCF7 breast cancer cells. The series is described as above. The series is classed as cell-based. Also noted: dose or concentration left out as unconfirmed. As to conditions: FIG. 3B. The method, then: as §2
Series [5] relates to Beas-2B cells. Described as above. The series is classed as cell-based. As to conditions: for Reversal of metal-induced chemoresistance to doxorubicin, non-saturating chelator dose: DMPS 40 μM, EDTA 20 μM, FIG. 5. The method, then: as §2
IC50 values were calculated using Graphpad Prism. Error bars represent standard deviation of triplicate measurements.

In series [6] the test system is H2170 cells. Kind of series: Cell survival assay, metal exposure and chelation treatment. The class given is cell-based. The settings on record: H2170 pre-treated with metals 1:128, then DMPS and doxorubicin for 72 hrs; FIG. 16. The method, then:
as §2
Overall, the methods disclosed in the first example were used in the second example as well. […]
(§3) Hep3B and H2177 cells were obtained from ATCC and were maintained in DMEM high Glucose (Invitrogen) and 10% FCS (Gibco) at 37° C. and 5% CO2. […] Cells were subsequently counted and added to 96 well plates for survival assays as previously described. […]

The subject of series [7] is BxPC-3 cells. The series is described as above. The series is classed as cell-based. The settings on record: BxPC3 pre-treated with metals 1:128; for Reversal of metal-induced chemoresistance to 5-FU: 150 μM chelator and 5-FU for 72 hrs, FIG. 17; for Effect of chelator on resistance/survival with nab-paclitaxel: 150 μM chelator and nab-paclitaxel for 72 hrs, FIG. 18. The method, then: as §2
Overall, the methods disclosed in the first example were used in the second example as well.

Series [8] concerns p53. The class given is biochemical. The settings on record: Beas-2B lysates with metals 30 min, then chelator 1 hr; naïve and loaded lysates; FIG. 23.
Series [9] relates to 158 mutant p53. Kind of series: p53 folding in transfected Hep3B cells. The series is classed as cell-based. As to conditions: Hep3B transfected with 158 mutant p53; metals followed by miaDMSA; FIG. 22. The procedure: as §1, with “The membrane was washed 3× with TBS-tween and secondary Ab (anti-mouse 700, Li-Cor) was used 1:10.000 to incubate the blot for 1 hr at room temperature.” left out
as §3

In series [10] the test system is WT p53. Kind of series: p53 folding in transfected Hep3B cells. The series is classed as cell-based. The settings on record: Hep3B transfected with WT p53; metals followed by miaDMSA; FIG. 22. The method, then:
as §1, with “The membrane was washed 3× with TBS-tween and secondary Ab (anti-mouse 700, Li-Cor) was used 1:10.000 to incubate the blot for 1 hr at room temperature.” left out
as §3

Where [11] appears, read: metal-loaded Beas-2B, DMPS 150 μM, EDTA 75 μM (equivalent chelation capacity), alone or combined, FIG. 4.
[12] abbreviates: Beas-2B pre-treated with metals 1:128, then chelator and doxorubicin for 72 hrs, FIG. 14, 15.

Turning to `O=S(=O)(O)CC(S)CS` (centres unmarked) [DMPS, 2,3-dimercapto-1-propanesulfonic acid], the “Metal induced chemoresistance and its reversal by chelator” value in series [1] was “less pronounced than in native A549 cells”. Besides, the “Prevention of metal-induced unfolding of p53” value in series [2] is on record as “prevents unfolding”. The “Reversal of metal-induced chemoresistance to doxorubicin” value is recorded as “reversed the chemoresistance completely” in series [3], “reversed the chemoresistance completely” in [4], “almost completely restored; also recorded: reversed chemoresistance completely” in [5] (setting [11]) and “only partially reversed” in [6]. Further, the “Restoration of sensitivity to doxorubicin (reversal of metal-induced chemoresistance)” value in series [5] (Beas2B cells primed with 1:128 and 1:256 metals, DMPS 150 μM, FIG. 3A) is on record as “completely restored”. In series [5] (alone or combined), the “Reversal of metal-induced chemoresistance to doxorubicin, non-saturating chelator dose” value is reported as “not able to restore chemosensitivity substantially”.
Regarding `O=C(O)C(S)C(S)C(=O)O` (centres unmarked) [DMSA, 2,3-dimercaptosuccinic acid], the “Prevention of metal-induced unfolding of p53” value in series [2] is given as “prevents unfolding”. Besides, in [7], the “Reversal of metal-induced chemoresistance to 5-FU” value is reported as “reversed” and the “Effect of chelator on resistance/survival with nab-paclitaxel” value is recorded as “reduce survivability”. In series [5] (setting [12]), the “Reversal of metal-induced chemoresistance to doxorubicin” value is “only partially reversed”.
In the case of `O=C(O)CN(CCN(CC(=O)O)CC(=O)O)CC(=O)O` [EDTA, ethylenediaminetetraacetic acid], the “Reversal of metal-induced chemoresistance to doxorubicin, non-saturating chelator dose” value in [5] (alone or combined) is “not able to restore chemosensitivity substantially”. In [5] (setting [11]), the “Reversal of metal-induced chemoresistance to doxorubicin” value is recorded as “able to restore chemosensitivity although not to the extent as seen for DMPS; also recorded: reversed the resistance only partially”. In [8], the “Refolding of unfolded p53” value was “clearly able to refold some of the p53”.
As for `COc1cccc2c1C(=O)c1c(O)c3c(c(O)c1C2=O)C[C@@](O)(C(=O)CO)C[C@@H]3O[C@H]1C[C@H](N)[C@H](O)[C@H](C)O1` [doxorubicin], the “IC50 of doxorubicin in metal-loaded cells relative to cells without added metals” value in series [5] (Beas-2B loaded with metals (1:128), FIG. 6) was “more than 10 times”. For the same compound, the IC50 of doxorubicin result in series [5] (Beas-2B without added metals, FIG. 6) is listed as “low”.
Take `CC(C)CCOC(=O)[C@@H](S)[C@@H](S)C(=O)O` [miaDMSA, monoisoamylDMSA]: the “Prevention of metal-induced unfolding of p53” value in [9] is on record as “prevented or reduced”. In series [10], the “Prevention of metal-induced unfolding of p53” value is reported as “prevented or reduced”. Also, in series [7], the “Reversal of metal-induced chemoresistance to 5-FU” value was “reversed” and the “Effect of chelator on resistance/survival with nab-paclitaxel” value was “reduce survivability; also recorded: reduction of resistance”. For the same compound, in series [5] (setting [12]), the “Reversal of metal-induced chemoresistance to doxorubicin” value is “highly potent chelator; also recorded: completely reversed”. For the same compound, the “Refolding of unfolded p53” value in series [8] is reported as “clearly able to refold some of the p53”.

These data come from patent US20250381163A1, “Chelating Agents for Use in Cancer Therapy” (priority 2022, published 2025).
